Key:
Nude mice/HIG3T3 = details: nude mice transplanted with activated H-Ras-transformed HIG3T3 cells; cited from earlier work
[1] = system: GLI1-transfected WM-115, SK-MEL-2 and SK-MEL-5; assay: GLI1-transfection enhanced BrdU incorporation, treatment with inhibitors; assay type: cell-based, human; details: 48 h treatment
Method: (§1) Commercial N-SHH (R&D Systems) was used at 100 nM. 5E1 anti-SHH blocking antibody (Hybridoma Bank, University of Iowa) was used at 10 μg/ml. Forskolin (FK) and 1,9-dideoxyforskolin (ddFK; Sigma) were used at 50 μM. […] MEK-1 (U0126; Promega), EGFR (AG1478; Biosource) and AKT (SH6; Alexis corporation) inhibitors were used at 1, 10, and 40 μM, respectively, dissolved in DMSO. Drug treatments were for 48 h in 2.5% serum. BrdU (Sigma) was pulsed at 4 μg/ml for 2 h before fixation followed by immunodetection with anti-BrdU antibodies (BD Biosciences). The number of viable cells was assessed by Trypan blue exclusion (Promega).

[2] = system: human melanoma primary cultures and cell lines; assay: BrdU incorporation in melanoma primary cultures and cell lines; assay type: cell-based
Method: (§2) Human foreskin melanocytes (Promocell) were grown in serum-free M2 medium (Promocell). WM-115, SK-MEL-2, SK-MEL-5, MeWo and COS7 cell lines (ATCC) were grown as specified. Tumors were chopped, incubated in E-MEM (Sigma) containing collagenase A (300 U/ml, Worthington) and hyaluronidase (100 U/ml, Sigma), mechanically dissociated and plated in E-MEM with 10% FBS, 1 mM sodium pyruvate (GIBCO) and 1 ng/ml EGF (GIBCO). […] All melanoma samples and BCC were obtained following approved protocols.
as §1

[3] = system: NRAS^Q61K mouse melanoma primary cultures; assay: BrdU incorporation in primary cultures of Tyr-NRAS^Q61K; Ink4a−/− mouse melanomas; assay type: cell-based; details: 10 μM
Method: WM-115, SK-MEL-2 and COS7 cell lines (ATCC) were grown according to the specifications of the provider. The primary Me-3 melanoma (Stecca, B. et al. Melanocyte proliferation and melanoma growth, recurrence and metastasis require sustained SONIC HEDGEHOG-GLI signaling. Submitted. (2006)) was grown in E-MEM with 10% FBS (Hyclone), 1 mM sodium pyruvate (GIBCO) and 1 ng/ml EGF (GIBCO). Proliferating human melanocytes from foreskin (Promocell) were grown in M2 media (Promocell). Melanomas from ±6 month-old Tyr→NRAS^Q61K; Ink4a^−/− mice on a light coat color Dct^−/− background^13 were collected from the skin and lymph nodes. Tumors were dissociated and grown in E-MEM with 10% FBS, 1 mM sodium pyruvate (GIBCO) and 1 ng/ml EGF (GIBCO). Mouse embryonic fibroblasts (MEFs) were prepared from E14.5 Swiss Webster mouse embryos and grown in DMEM with 10% FBS.
Forskolin (FK) and 1,9-dideoxyforskolin (ddFK; Sigma) were used at 50 μM. MEK-1 (U0126; Promega), and AKT (SH6; Alexis corporation) inhibitors were used at 1 and 40 μM, respectively, dissolved in DMSO. U0126 and SH6 were used for 1 h, 48 h post-transfection. Leptomycin B (LMB; Sigma) was used at 5 nM for 6 h, 48 h post-transfection. BrdU (Sigma) was pulsed at 4 μg/ml for 2 h before fixation followed by immunodetection with anti-BrdU antibodies (BD Biosciences). The number of viable cells was assessed by Trypan blue exclusion (Promega). […]

[4] = system: primary cultures Me-1 to Me-5 (melanoma metastases); assay: BrdU incorporation in melanoma primary cultures; assay type: cell-based, human; details: exogenous recombinant SHH ligand, 48 h; fraction of five primary cultures
Method: as §2, §1

[5] = system: GLI1, HIP and MITFM expression; assay: qPCR gene expression in proliferating melanocytes after SHH; assay type: cell-based, human; details: SHH treatment, 8 h, qPCR normalized to GAPDH
Method: (§3) Real-time quantitative PCR amplifications with different primers (Suppl. Materials) were carried out at 60° C. on an Opticon machine (MJ Research) using iQ™ SYBR Green supermix (Biorad) and values calculated using the standard curve method.

[6] = system: Proliferating melanocytes from human foreskin; assay: BrdU incorporation in proliferating melanocytes; assay type: cell-based
Method: as §2, §1

[7] = system: WM115, SK-MEL-2, SK-MEL-5 and MeWo cell lines; assay: BrdU incorporation in melanoma cell lines; assay type: cell-based, human
Method: as §2, §1

[8] = system: EJ-1 human bladder carcinoma; details: in vivo; cited from earlier work
[9] = system: ras-transformed rat kidney cell; details: cited from earlier work
human cancer cells = details: cited from earlier work
[10] = system: GLI1, PTCH1, BMI1, FOXM1, MITFM expression; assay: qPCR gene expression in melanoma cultures; assay type: cell-based, human
Method: as §3, §1

[11] = system: HRAS^V12G or NRAS^Q61K transfected WM-115 and SK-Mel2 cells; assay: oncogenic RAS-transfection enhanced BrdU incorporation (Example 2); assay type: cell-based, human
Method: Forskolin (FK) and 1,9-dideoxyforskolin (ddFK; Sigma) were used at 50 μM. MEK-1 (U0126; Promega), and AKT (SH6; Alexis corporation) inhibitors were used at 1 and 40 μM, respectively, dissolved in DMSO. U0126 and SH6 were used for 1 h, 48 h post-transfection. Leptomycin B (LMB; Sigma) was used at 5 nM for 6 h, 48 h post-transfection. BrdU (Sigma) was pulsed at 4 μg/ml for 2 h before fixation followed by immunodetection with anti-BrdU antibodies (BD Biosciences). The number of viable cells was assessed by Trypan blue exclusion (Promega). […] (SEQ ID NO: 57) (target-validated from Ambion). […] SEQ ID NO: 58) (Sanchez, P. et al. Inhibition of prostate cancer proliferation by interference with SONIC HEDGEHOG-GLI1 signaling. Proc. Natl. Acad. Sci. USA. 101, 12561-12566 (2004)). siRNA transfections (0.2 μM) were performed with Oligofectamine (Invitrogen) for 48 h.
Cells were transfected (3 μg/p35 plate) with myc-tagged full-length CMV expression vectors with FUGENE (Roche). Transfections were at equimolar amounts unless otherwise specified with combinations of pCS2-Myc-tagged human GLI1, GLI3, GLI3R (GLI3C′ΔClaI), frog Gli2R (Gli2C′) (Ruiz i Altaba, A. Gli proteins encode context-dependent positive and negative functions: implications for development and disease. Development 126, 3205-3216 (1999), pCMV-HA-tagged GLI1 (ref. 20), HRAS^V12G (from A. Pellicer), NRAS^Q61K (Ackermann, J. et al. Metastasizing melanoma formation caused by expression of activated N-RasQ61K on an INK4a-deficient background. Cancer Res. 65, 4005-4011 (2005)), activated (myristoylated) myc-tagged AKT1 (Upstate), activated MEK1 (p45MAPKK^S222D; from J. Pouyssegur), Myc-tagged SUFUH (Kogerman, P. et al. Mammalian suppressor-of-fused modulates nuclear-cytoplasmic shuttling of Gli-1. Nat Cell Biol. 1, 312-319 (1999)), and pCMV-eGFP or pCMV-lacZ.

p-ERK, p-AKT = assay: levels of p-ERK or p-AKT in melanoma cells; assay type: cell-based, human; details: cyclopamine treatment
WM115 cells = assay: BrdU incorporation, MEK inhibitor plus cyclopamine; assay type: cell-based, human; details: 5 μM cyclopamine plus 1 μM U0126, 48 hours
Method: (§4) Cell proliferation was assessed after incubation with BrdU as described.

WM-115, Me-3 and MeWo = assay: long-term cyclopamine treatment and recovery of cultures; assay type: cell-based, human; details: ten days, drug-containing media anew every 2 days
Mewo cells = assay: BrdU incorporation, AKT inhibitor plus cyclopamine; assay type: cell-based, human; details: 5 μM cyclopamine plus 20 μM SH6, 48 hours
Method: as §4

MeWo/LacZ melanomas = assay: subcutaneous MeWo/LacZ melanoma xenografts in nude mice; assay type: in vivo, mouse
Method: (§5) 5×10^5 MeWo/LacZ, WM-115 or 10^6 primary Me-3 melanoma cells were inoculated subcutaneously (s.c.) at two sides per adult male (NMRI-nu) nude mouse and the tumors were measured daily. […] For metastasis studies, 1×10^6 Mewo/LacZ cells were injected into the tail vein (i.v.) of adult male nude mice. […] At the end of the treatment the lungs were dissected and stained with XGal.

[12] = system: WM-115 subcutaneous tumors; assay: subcutaneous WM-115 melanoma xenografts in nude mice; assay type: in vivo, mouse; details: n=2 treated vs n=2 carrier
Method: as §5

[13] = system: GLI1 transcriptional activity; assay: GLI luciferase reporter assay (7 GLI binding site reporter) in COS7 cells; assay type: cell-based, monkey
[14] = system: Nude Harlan Sprague-Dawley Mice/lung (A-549, Calu-1) tumors; details: 70 mg/kg/d; cited from earlier work

Molecule: C[C@H]([C@H](C/C=C/c1nc2ccccc2o1)c1ccc2c(c1)OCO2)N(Cc1ccc2ccccc2c1)C(=O)[C@H]1OC(C(=O)O)(C(=O)O)O[C@H]1C(=O)O [J-104871]
- tumor growth (Nude mice/HIG3T3): suppressed tumor growth

Molecule: COc1cc2ncnc(Nc3cccc(Cl)c3)c2cc1OC [AG1428]
- effect on GLI1-enhanced proliferation [1]: reversed
- BrdU incorporation ([2]; 48 h, all four melanoma cell lines tested and Me-3): decreased BrdU incorporation

Molecule: C[C@H]1CC[C@]2(NC1)O[C@H]1C[C@H]3[C@@H]4CC[C@H]5C[C@@H](O)CC[C@]5(C)[C@H]4CC[C@]3(C)[C@H]1[C@@H]2C [tomatidine]
- proliferation of all 12 primary cultures ([3]; 48 h): no effect

Molecule: SHH: Commercial N-SHH (R&D Systems), recombinant SHH ligand
- primary cultures with increased BrdU incorporation above a basal level (10%) [4]: ⅘
- induction of GLI1 expression [5]: 2-3 fold
- induction of HIP expression [5]: 2-3 fold
- induction of MITFM expression [5]: 6 fold
- increase in proliferation ([6]; recombinant SHH ligand, 48 h, over PBS): ⅓
- cell lines with increased BrdU incorporation above a basal level (10%) ([7]; exogenous recombinant SHH ligand, 48 h, fraction of four cell lines): ¾

Molecule: COC(=O)[C@H](CCSC)NC(=O)[C@H](/C=C\[C@@H](/C=C/[C@@H](N)CS)C(C)C)Cc1ccccc1 [B1086]
- tumor growth [8]: inhibit tumor growth

Molecule: Cc1ccc(S(=O)(=O)N[C@@H](Cc2ccccc2)C(=O)CCl)cc1 [TPCK]
- cell growth [9]: potently inhibit
- anchorage-independent clonogenic growth (human cancer cells): almost completely block

Molecule: CC1=C2C[C@H]3[C@@H](CC=C4C[C@@H](O)CC[C@@]43C)[C@@H]2CC[C@]12O[C@@H]1C[C@H](C)CN[C@H]1[C@H]2C [cyclopamine]
- GLI1 expression ([10]; 24-48 h cyclopamine treatment): decreased GLI1 expression
- PTCH1 expression ([10]; cyclopamine 8 h, 3 primary cultures tested): inhibited PTCH1 expression
- Expression of BMI1, FOXM1 and MITFM ([10]; cyclopamine 8 h, primary cultures): repressed
- inhibition of oncogenic RAS-enhanced BrdU incorporation ([11]; WM-115 and SK-Mel2): 65-75%
- levels of p-ERK or p-AKT (p-ERK, p-AKT): did not alter
- effect on BrdU incorporation of suboptimal cyclopamine combined with U0126 (WM115 cells): significantly effective
- BrdU incorporation after long-term treatment (WM-115, Me-3 and MeWo): inhibit all BrdU incorporation
- response of BrdU incorporation to cyclopamine ([2]; 24-48 h, dose-dependent, compared with tomatidine): all responded
- induction of the senescence marker SA-β-gal ([6]; cyclopamine treatment): did not induce
- effect on BrdU incorporation of suboptimal cyclopamine combined with SH6 (Mewo cells): significantly effective
- sensitivity of tumor-derived MeWo/lacZ cells to cyclopamine in vitro versus parental cells ([7]; cells from systemically treated tumors): same sensitivity
- number of doubly BrdU+/GFP+ cells ([3]; two primary cultures (1-PM2, 1-LNM5), GFP plus control plasmid): decreased the number of doubly BrdU+/GFP+ cells
- recurrence after sustained treatment (MeWo/LacZ melanomas; 20 d treatment after tumor disappearance, 42 additional days): no recurrences
- tumor response to injection into the tumor (MeWo/LacZ melanomas; cyclodextrin-complexed cyclopamine injected into the tumor, tumors ±10 mm^3 or ±65 mm^3, vs cyclodextrin alone): rapid regression and disappearance of the tumors
- cured tumors containing small pockets of β-gal+ tumor cells or groups of single cells (MeWo/LacZ melanomas; five cured tumors taken 1-2 days after macroscopic disappearance): ⅘
- time to tumor reappearance (MeWo/LacZ melanomas; from the end of 3 d and 10 d additional treatment after tumor disappearance): 2 to 7 days
- decrease in tumor volume (MeWo/LacZ melanomas; systemic treatment of large subcutaneous tumors (±65 mm^3), 16 days, vs carrier-only): 33%
- tumor response to cyclopamine treatment [12]: lead to their disappearance

Molecule: CCC(=C/[C@H](C)C/C=C/C(C)=C/[C@@H](C)C(=O)[C@@H](C)[C@H](O)[C@@H](C)C/C(C)=C/C(=O)O)/C=C/[C@@H]1OC(=O)C=C[C@@H]1C [LMB]
- increase of GLI1-induced luciferase activity ([13]; GLI1 alone, 4 h treatment with LMB): ~3 fold
- further increase in GLI activity ([13]; cells coexpressing GLI1 and NRAS^Q61K, LMB treatment): ~3 fold

Molecule: C=C[C@@]1(C)CC(=O)[C@]2(O)[C@@]3(C)[C@@H](O)CCC(C)(C)[C@@H]3[C@H](O)[C@H](OC(C)=O)[C@@]2(C)O1 [Forskolin]
- inhibition of oncogenic RAS-induced proliferation ([11]; SK-Mel2): 100%
- inhibition of oncogenic RAS-induced proliferation ([11]; WM-115): ~80%

Molecule: CC(C)C[C@H](NC(=O)c1ccc(NC[C@@H](N)CS)cc1-c1cccc2ccccc12)C(=O)O [GGTI-297]
- GROWTH INHIBITION [14]: 56%-70%

Source: patent publication US7709454B2, “Methods and compositions for inhibiting tumorigenesis” (New York University, priority 1997, dated 2010)
